Measured values taken from patent publication US20040019092A1, “Non-peptide somatostatin receptor ligands” (priority 2001, published 2004).
pIC50: −log10 of the molar value. Values joined by “and” are separate entries in the source; they are usually repeats but may differ in a detail not shown here. Equal entries are not always repeated.

Experiments:
[1] = biological target: T1, human sst2 receptor sub-type (Homo sapiens, UniProt P30874); assay: In vitro binding, human sst2 receptor sub-type (SSTR2); conditions: Tables 8/9: Bind SSTR2 nM
T1 construct: host or cells: SRIF receptor expressing cell cultures (general statement only)
T1 sequence (P30874 whole entry): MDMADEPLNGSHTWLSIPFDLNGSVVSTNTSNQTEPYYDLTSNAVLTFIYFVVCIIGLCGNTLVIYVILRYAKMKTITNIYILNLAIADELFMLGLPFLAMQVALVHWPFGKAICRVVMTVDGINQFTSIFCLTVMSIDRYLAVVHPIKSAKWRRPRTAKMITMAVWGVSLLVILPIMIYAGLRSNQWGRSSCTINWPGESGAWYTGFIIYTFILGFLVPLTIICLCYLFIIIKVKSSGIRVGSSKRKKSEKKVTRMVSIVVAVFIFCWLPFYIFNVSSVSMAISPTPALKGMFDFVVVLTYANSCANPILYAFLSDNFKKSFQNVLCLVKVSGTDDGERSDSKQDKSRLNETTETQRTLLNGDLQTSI
Procedure: The in vitro binding affinities for rat cortex SRIF receptors and the human sst2 receptor sub-type was assessed. Further the in vitro inhibition of the GHRH induced GH secretion in primary cultures of rat pituitary cells as well as the in vivo inhibition of GH secretion in the rat after systemic or enteral application was studied. […] Therefore, the in vivo activities of the compounds in rats with respect to inhibition of growth hormone release was also assessed. Most compounds selected were tested by enteral—intraduodenal (i.d.) application. For determination of the absolute activity and for the calculation of an enteral bioavailability, single subcutaneous (s.c.) application of intravenous (i.v.) infusion was used.

GH secretion [2] = assay: GH secretion in vivo, rat, subcutaneous application, 1 h (basal); conditions: rat, basal GH secretion, 1 h after subcutaneous application
Procedure: (§1) Animals, anesthesia: Male rats of a Sprague Dawley strain (Ico:OFA-SD, Iffa-Credo, F-Lyon) of 200-300 g body weight were used. They were kept under standardized conditions and were anesthetized with pentobarbital-sodium (Siegfried, CH Zofingen), 60 mg/kg i.p. for subcutaneous and intraduodenal applications. Animals designed for an infusion experiment were anesthetized with urethane (Siegfried, CH Zofingen), 1.2 g/kg i.p.
(§2) Compounds: The compounds were dissolved, optionally with the aid of one or more of the following adjuncts:
(§3) Stock solutions of the compounds were prepared in water with the addition of the necessary adjunct(s). Further dilutions were prepared allowing 5 mL/kg for subcutaneous application, 2 mL for intraduodenal (i.d.) application or 4.5 mL/kg for intravenous infusion. The solutions for the intravenous application/infusion were made isotonic by addition of glucose to a final concentration of 5%.
(§4) Applications were made, or, in the case of infusion, started, approximately 10 minutes after induction of anesthesia. No further treatment followed subcutaneous or intraduodenal application. Ten, twenty-five and fifty-five minutes after start of the intravenous infusion the GH secretion was stimulated with repeated intravenous injections of the potent GHRH analog, D-Ala2 GHRH1-29NH2, 1 μg/kg.
(§5) One hour after subcutaneous or intraduodenal application of the compounds, blood was collected from the trunk after decapitation. In the case of application by infusion, 5 minutes after each application of GHRH, a blood sample of 0.8 mL was taken from a V. jugularis and mixed with EDTA (Eppendorf tubes TOM14, Milian, CH Geneva). The blood samples were kept on ice and spun in a cooled centrifuge. The serum or plasma was separated and frozen.
(§6) Statistics: In each experiment, 4-5 animals were used per dose, with 6 to 8 animals as the control group that received the vehicle. The GH serum/plasma levels were averaged, the mean of the treated groups expressed in percent of the control group and the ID50-value for the inhibition of the secretion was determined graphically (log-probit) for each experiment. In most experiments with enteral (intraduodenal) application only 1 dose, 10 mg/kg, was given. […] Only inhibitions between 20 and 80% were considered reliable.
(§7) Two to four experiments were performed. In the case of proper dose response curves, allowing the determination of an ID50 values were averaged logarithmically. In the cases of single dose-experiments, the GH value in percent of control were averaged logarithmically and the ID50 for this value was taken from the table. ID50 values determined at the different time points during the infusion were averaged and this value was included in the tables.

GH secretion [3] = assay: GH secretion in vivo, rat, intraduodenal (enteral) application, 1 h (basal); conditions: basal GH secretion, 1 h after intraduodenal application, mostly approximate ID50 from single 10 mg/kg dose, Ø = no effect at this dose, > = extrapolated value, 10 mg/kg
Procedure: as §1, §2, §3, §4, §5, §6, §7

[4] = tested on: GHRH stimulated GH secretion; assay: GH secretion in vivo, rat, intravenous infusion with repeated GHRH stimulation
Procedure: as §1, §3, §4, §5, §6, §7

[5] = tested on: basal plasma levels of growth hormone, glucagon, insulin and glucose; assay: Endocrine parameters in the Rhesus monkey after subcutaneous administration; type: in vivo
Procedure: Therefore, they were further investigated in the Rhesus monkey and their activity profile was determined. Using subcutaneous administration, they were characterized in this species, by measuring their effects on the basal plasma levels of growth hormone, glucagon, insulin as well changes in glucose levels.
Animals and blood sampling: Rhesus monkeys, fed on the previous day in the morning with fruits only, were placed, slightly anesthetized with ketamin (Ketalar©, Parke-Davis), in primate chairs and brought to the experimental room. A catheter, consisting of an in-dwelling cannula (Vasocan Braunüle, 20G, B. Braun Melsungen AG, D-Melsungen), an extension line made from PP 800/110/260/100 Portex© tubing and a special adapter between cannula and tubing with a minimal void volume, was placed in a saphenic vein. The total volume of this catheter was approximately 0.7 mL. The distal end was placed through a hole in the wall to the adjacent room in order to allow infusion and blood sampling without being noticed by the animal. The animals were monitored with a video system.
During the entire duration of the experiment an infusion of 5 to 10 mL/h of isotonic saline (NaCl 0.9% Braun, B. Braun Medical AG, CH-Emmenbrücke) containing heparin sodium 80 mg/L (Biochemie GMBH, A-Kundl) was maintained, using a roller pump (Vario-Perpex, Guldener, CH-Zürich). At each sampling time 1.5 mL (twice the void volume of the catheter) was taken in one syringe before collecting the actual blood sample of 2 mL in another syringe. The first 1.5 mL were reinfused immediately after the actual sample had been taken. The sample was mixed with 0.1 mL of a mixture containing EDTA (ethlenediaminetetraacetic acid tetrasodium Fluka, CH-Buchs) and aprotinin (Trasylol©, Bayer) resulting in final concentrations of 1.8 mg/mL and 1000 KIE/mL, respectively. The blood samples were kept on ice and spun in a cooled centrifuge. […]
Determinations: The blood levels of the hormones were determined by radioimmunoassay (RIA) using the appropriate antisera, antibodies, labels and standards, glucose by an enzymatic assay: […]

SS1 = SS1 (Rattus norvegicus, UniProt P30680); assay: SS-1 binding (Bind SS1 D.H.)
SS1, sequence (P30680 whole entry): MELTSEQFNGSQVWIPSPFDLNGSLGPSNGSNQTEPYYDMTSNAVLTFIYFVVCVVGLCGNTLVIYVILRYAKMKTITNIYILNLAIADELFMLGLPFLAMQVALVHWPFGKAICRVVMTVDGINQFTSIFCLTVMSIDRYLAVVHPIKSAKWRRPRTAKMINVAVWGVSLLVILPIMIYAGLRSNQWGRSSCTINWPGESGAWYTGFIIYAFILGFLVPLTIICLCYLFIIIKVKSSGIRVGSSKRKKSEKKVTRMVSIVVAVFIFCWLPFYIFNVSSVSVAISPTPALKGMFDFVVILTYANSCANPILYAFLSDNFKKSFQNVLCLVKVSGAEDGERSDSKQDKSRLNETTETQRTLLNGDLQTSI

SSTR1 = biological target: T2, SSTR1 (Homo sapiens, UniProt P30872); assay: Binding SSTR1; conditions: > = extrapolated value; read-out: Bind SSTR1
T2 construct: host or cells: SRIF receptor expressing cell cultures (general statement only)
T2 sequence (P30872 whole entry, species assumed): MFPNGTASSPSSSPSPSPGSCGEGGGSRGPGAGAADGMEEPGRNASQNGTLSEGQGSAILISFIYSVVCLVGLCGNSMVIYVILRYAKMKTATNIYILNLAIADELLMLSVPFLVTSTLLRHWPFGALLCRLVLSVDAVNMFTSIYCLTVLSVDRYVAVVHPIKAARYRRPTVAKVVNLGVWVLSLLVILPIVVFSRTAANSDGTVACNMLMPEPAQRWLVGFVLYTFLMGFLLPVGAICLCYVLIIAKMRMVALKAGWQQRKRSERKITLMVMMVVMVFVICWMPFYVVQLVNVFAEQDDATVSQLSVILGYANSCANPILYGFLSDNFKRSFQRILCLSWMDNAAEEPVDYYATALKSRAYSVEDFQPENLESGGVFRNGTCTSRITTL

SSTR3 = biological target: T3, SSTR3 (Homo sapiens, UniProt P32745); assay: Binding SSTR3; conditions: > = extrapolated value; read-out: Bind SSTR3
T3 construct: host or cells: SRIF receptor expressing cell cultures (general statement only)
T3 sequence (P32745 whole entry, species assumed): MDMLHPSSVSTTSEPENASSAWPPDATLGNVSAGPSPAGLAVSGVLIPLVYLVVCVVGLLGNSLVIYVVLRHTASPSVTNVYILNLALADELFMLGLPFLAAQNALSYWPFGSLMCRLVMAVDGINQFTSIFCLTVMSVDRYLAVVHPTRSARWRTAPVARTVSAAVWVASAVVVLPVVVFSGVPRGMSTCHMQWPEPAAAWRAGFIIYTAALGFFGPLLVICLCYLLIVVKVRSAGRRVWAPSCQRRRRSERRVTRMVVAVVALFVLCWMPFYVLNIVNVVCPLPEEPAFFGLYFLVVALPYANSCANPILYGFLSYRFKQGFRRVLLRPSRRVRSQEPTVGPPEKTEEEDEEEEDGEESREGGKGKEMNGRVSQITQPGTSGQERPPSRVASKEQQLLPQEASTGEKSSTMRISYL

SSTR4 = biological target: T4, SSTR4 (Homo sapiens, UniProt P31391); assay: Binding SSTR4; conditions: > = extrapolated value; read-out: Bind SSTR4
T4 construct: host or cells: SRIF receptor expressing cell cultures (general statement only)
T4 sequence (P31391 whole entry, species assumed): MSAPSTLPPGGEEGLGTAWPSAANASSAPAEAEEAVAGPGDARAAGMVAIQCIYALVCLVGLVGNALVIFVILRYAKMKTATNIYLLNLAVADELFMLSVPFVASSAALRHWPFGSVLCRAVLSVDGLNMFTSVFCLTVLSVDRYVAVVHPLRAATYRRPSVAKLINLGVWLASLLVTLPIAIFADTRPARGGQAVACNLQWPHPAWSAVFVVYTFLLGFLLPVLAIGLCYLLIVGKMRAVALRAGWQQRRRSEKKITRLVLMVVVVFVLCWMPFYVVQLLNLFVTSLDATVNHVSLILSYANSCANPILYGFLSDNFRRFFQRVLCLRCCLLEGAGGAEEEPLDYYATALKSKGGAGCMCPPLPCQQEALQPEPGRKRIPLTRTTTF

SSTR5 = biological target: T5, SSTR5 (Homo sapiens, UniProt P35346); assay: Binding SSTR5; conditions: read-out: Bind SSTR5
T5 construct: host or cells: SRIF receptor expressing cell cultures (general statement only)
T5 sequence (P35346 whole entry, species assumed): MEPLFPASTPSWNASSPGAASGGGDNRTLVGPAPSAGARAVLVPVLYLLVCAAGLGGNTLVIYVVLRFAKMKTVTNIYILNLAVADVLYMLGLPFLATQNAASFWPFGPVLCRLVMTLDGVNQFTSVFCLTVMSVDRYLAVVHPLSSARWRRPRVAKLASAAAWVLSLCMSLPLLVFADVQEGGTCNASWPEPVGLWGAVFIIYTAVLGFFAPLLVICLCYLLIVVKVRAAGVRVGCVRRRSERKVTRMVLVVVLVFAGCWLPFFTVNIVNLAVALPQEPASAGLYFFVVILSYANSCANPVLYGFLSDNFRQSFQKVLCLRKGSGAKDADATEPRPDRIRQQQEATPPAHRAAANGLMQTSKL

pIC50 [1]: 9.37
Bind SS1 D.H. (SS1): 0.63 nM
pIC50 (SSTR1): < 6.00
pIC50 (SSTR3): 6.35
pIC50 (SSTR4): < 6.00
pIC50 (SSTR5): 7.05
SMILES: Cc1cccc2c(CC3C(=O)N(CCCCCN)C(=O)N3S(=O)(=O)c3ccc(Oc4ccc(O)cc4)c(C(=O)N(C)C)c3)c[nH]c12 (stereo not drawn) [Compound 46]
GH vivo s.c. 1 h ID50 (GH secretion [2]): 7.4 µg/kg and 7 µg/kg
GH vivo s.c. 1 h ID50 (GH secretion [2]; listed as 46 b): ˜7.40 μg/kg
GH vivo i.d. 1 h ID50 (GH secretion [3]): 19000 µg/kg
INFUS. + GHRH ID50 MEAN ([4]; Table 4, mean of infusion time points): 7.89 µg/kg
INFUS. + GHRH ID50 15′ ([4]; Table 4, urethan, 15′ of infusion): 9.38 µg/kg
INFUS. + GHRH ID50 30′ ([4]; Table 4, urethan, 30′ of infusion): 8.14 µg/kg
INFUS. + GHRH ID50 60′ ([4]; Table 4, urethan, 60′ of infusion): 6.43 µg/kg
GH, Ur Inf15′ +GHRH ([4]; Tables 8/9, urethane, 15′ of infusion): 9.400 µg/kg/h
GH, UR Inf30′ +GHRH ([4]; Tables 8/9, urethane, 30′ of infusion): 8.100 µg/kg/h
GH, UR Inf60′ +GHRH ([4]; Tables 8/9, urethane, 60′ of infusion): 6.400 µg/kg/h
GH vivo Inf + GHRH ID50 (mean of time points) ([4]; urethane, i.v. infusion, GHRH stimulated, listed as 46 b): 7.89 µg/kg/h and 7.900 µg/kg/h
dose levels necessary for inhibition of hormone release, times higher than Octreotride [5]: about 100 times
